Read-outs that look alike come from different tables or passages of the source.
Test system: HKx31 (H3N2)
Format: in vivo, mice
Parameters: key to PMN activity score / Viral titre activity score / BAL IL-6 activity score: 0: inactive; 1: less active than the peptide of SEQ ID NO:38; 2: comparable or more active than the peptide of SEQ ID NO:38
Conditions: for IL-6 levels in the BAL fluid / viral titres: 10 mg/kg single dose
[1] = PMN infiltrate in BAL fluid, […], relative to SEQ ID NO:38, 10 mg/kg
[2] = single 10 mg/kg dose, day 3, relative to SEQ ID NO:38

Row | Substance | IL-6 levels in the BAL fluid | viral titres (day 3) | BAL IL-6 activity score (mouse, in vivo, 10 mg/kg) | PMN activity score (mouse, in vivo, 10 mg/kg) | Viral titre activity score (mouse, in vivo, 10 mg/kg) | reducing the PMN infiltrate in BAL fluid, compared with the peptide of SEQ ID NO:38 (single 10 mg/kg dose) | PMN activity score [1] | Viral titre activity score [2] | BAL IL-6 activity score (IL-6 in BAL fluid, single 10 mg/kg dose, relative to SEQ ID NO:38)
1 | 23 (RPVESS) [compound 23] | as effective | effective | 1 | 1 | 2 | relatively less effective |  |  | 
2 | 29 (RIIHNN) [compound 29] | as effective | effective | 2 | 2 | 2 | as effective |  |  | 
3 | 41 (RALNSS; SITE 1 Arg 1 is bonded to Ser 6; SITE 6 Ser 6 is bonded to Arg 1) [compound 41] |  |  |  | 1 |  | relatively less effective |  |  | 
4 | 43 (RALRTK) [compound 43] |  |  |  |  |  | did not show any changes |  |  | 
5 | 44 (HIVESS) [compound 44] | as effective |  | 2 |  | 1 | did not show any changes | 0 |  | 
6 | 47 (RAVESS) [compound 47] | as effective |  | 2 |  | 1 |  | 0 |  | 
7 | 49 (RALNST) [compound 49] | as effective |  | 2 |  |  |  | 0 | 0 | 
8 | 50 (RALQSS) [compound 50] | as effective | effective | 2 | 1 | 2 | relatively less effective |  |  | 
9 | 52 (PALNTS) [compound 52] | as effective | effective | 2 |  | 2 | did not show any changes | 0 |  | 
10 | 56 (RSVEG) [compound 56] | as effective | effective | 2 | 2 | 2 | as effective |  |  | 
11 | 57 (RSVE) [compound 57] |  |  |  | 1 |  | relatively less effective |  | 0 | 0
